# Measured values taken from PMC7112121 (Bioorganic Chemistry, 2019).
# Where two headings read alike, the source gives them in different places.
# B1: Urtica dioica agglutinin (protein, UniProt P11218 24-372, looked up)
# Lectin/endochitinase 1: QRCGSQGGGGTCPALWCCSIWGWCGDSEPYCGRTCENKCWSGERSDHRCGAAVGNPPCGQDRCCSVHGWCGGGNDYCSGSKCQYRCSSSVRGPRVALSGNSTANSIGNVVVTEPLFDQMFSHRKDCPSQGFYSYHSFLVAAESFPAFGTIGDVATRKREVAAFLAHISQATSGERSDVENPHAWGLCHINTTTVTENDFCTSSDWPCAAGKKYSPRGPIQLTHNFNYGLAGQAIGEDLIQNPDLVEKDPIISFKTALWFWMSQHDNKPSCHDIVLNANSAANRIPNKGVIGNIISRAFGHDDFAVRSSSIGFYKRYCDMLGVSYGHDLKYWFDNTPSSEFQRIQMRVAA
# Experiments:
# HSV-2 = assay: Antiviral CPE reduction assay, HSV-2 in HEL cells; assay type: cell-based, Herpes simplex virus-2; conditions: for EC50: Human alphaherpesvirus 2, HEL, read-out: Antiviral EC50 HSV-2
# Sindbis virus = assay: Antiviral CPE reduction assay, Sindbis virus in VERO cells; assay type: cell-based; conditions: for EC50: Sindbis virus, Vero, read-out: Antiviral EC50 Sindbis virus
# ACV^r-HSV-1 = assay: Antiviral CPE reduction assay, ACVr-HSV-1 in HEL cells; assay type: cell-based; conditions: for EC50: Human alphaherpesvirus 1, HEL, read-out: Antiviral EC50 ACV^r-HSV-1
# VERO cells = conditions: minimum cytotoxic concentration, microscopic inspection of cell morphology
# Vaccinia virus = assay: microbe, parasite or virus in culture; assay type: cell-based; conditions: for EC50: Orthopoxvirus vaccinia, HEL, read-out: Antiviral EC50 Vaccinia virus
# Feline coronavirus = assay: microbe, parasite or virus in culture; conditions: Alphacoronavirus 1, CRFK, read-out: Antiviral EC50 Feline coronavirus
# Punto Toro virus = assay: Antiviral CPE reduction assay, Punto Toro virus in VERO cells; assay type: cell-based, Punta toro virus; conditions: for EC50: Punta Toro virus, Vero, read-out: Antiviral EC50 Punto Toro virus
# HSV-1 = assay: Antiviral CPE reduction assay, HSV-1 in HEL cells; assay type: cell-based, Herpes simplex virus-1; conditions: for EC50: Human alphaherpesvirus 1, HEL, read-out: Antiviral EC50 HSV-1
# Coxsackie B4 virus = assay: Antiviral CPE reduction assay, Coxsackie B4 virus in VERO cells; assay type: cell-based; conditions: for EC50: Enterovirus B, B4, Vero, read-out: Antiviral EC50 Coxsackie B4 virus
# Parainfluenza-3 virus = assay: Antiviral CPE reduction assay, Parainfluenza-3 virus in VERO cells; assay type: cell-based; conditions: for EC50: Vero, read-out: Antiviral EC50 Parainfluenza-3 virus; for Antiviral EC50 Parainfluenza-3 virus: VERO cells, CPE by microscopy, mean of two experiments
# [1] = system: human embryonic lung (HEL) fibroblast cells; conditions: minimum cytotoxic concentration, microscopic inspection of cell morphology
# Reovirus-1 = assay: Antiviral CPE reduction assay, Reovirus-1 in VERO cells; assay type: cell-based; conditions: for EC50: Vero, read-out: Antiviral EC50 Reovirus-1; for Antiviral EC50 Reovirus-1: VERO cells, CPE by microscopy, mean of two experiments
# Feline herpesvirus = assay: Antiviral CPE reduction assay, Feline herpesvirus in CRFK cells; assay type: cell-based; conditions: Felid alphaherpesvirus 1, CRFK, read-out: Antiviral EC50 Feline herpesvirus
# [2] = system: Mycobacterium tuberculosis H37Rv; conditions: for H37Rv Finding Activity: M. tuberculosis H37Rv, MABA in BACTEC 12B medium
# CRFK feline kidney cells = conditions: MTS cell viability assay
# [3] = system: Vesicular stomatitis virus; assay type: cell-based
# [4] = system: Mycobacterium tuberculosis H37Rv; assay: microbe, parasite or virus in culture
# [5] = HEL cells, CPE by microscopy, mean of two experiments
# [6] = VERO cells, CPE by microscopy, mean of two experiments
Molecule,EC50 (HSV-2),EC50 (Sindbis virus),EC50 (ACV^r-HSV-1),Cytotoxicity MCC (VERO cells),EC50 (Vaccinia virus),EC50 (Feline coronavirus),EC50 (Punto Toro virus),EC50 (HSV-1),EC50 (Coxsackie B4 virus),EC50 (Parainfluenza-3 virus),Cytotoxicity MCC [1],EC50 (Reovirus-1),EC50 (Feline herpesvirus),H37Rv Finding Activity [2],further results
"CC1SC2(CCC(c3ccc(O)cc3)CC2)N(NC(=O)Cc2csc3nc(-c4ccc(Br)cc4)cn23)C1=O (stereo not drawn) [Compound 6d, 2-[6-(4-Bromophenyl)imidazo[2,1-b]thiazole-3-yl]-N-(2-methyl-8-(4-hydroxyphenyl)-3-oxo-1-thia-4-azaspiro[4.5]dec-4-yl)acetamide]",> 100 µg/mL,> 100 µg/mL,> 100 µg/mL,≥20 µg/mL,> 100 µg/mL,> 100 µg/mL,> 100 µg/mL,> 100 µg/mL,10 µg/mL,> 100 µg/mL,≥20 µg/mL,> 100 µg/mL,> 100 µg/mL,–,"selectivity index (Coxsackie B4 virus; Coxsackie B4 virus, VERO cells): ≥ 2"
"Nc1nc2c(ncn2COCCO)c(=O)[nH]1 [Acyclovir, reference compound]",500 nM,–,≥ 112 µM,–,> 250 µM,–,–,–,–,–,–,–,–,–,–
"O=C(Cc1csc2nc(-c3ccc(Br)cc3)cn12)NN=C1CCCCC1 [Compound 4b, 6-(4-Bromophenyl)-N^2-(cyclohexylidene)imidazo[2,1-b]thiazole-3-acetohydrazide]",–,–,–,>100 µg/mL,–,–,–,–,–,–,20 µg/mL,–,–,Inactive,Antiviral EC50 HSV-2 (HSV-2; [5]): >100 µg/mL; Antiviral EC50 Sindbis virus (Sindbis virus; [6]): >100 µg/mL; Antiviral EC50 ACV^r-HSV-1 (ACV^r-HSV-1; [5]): >100 µg/mL; Antiviral EC50 Vaccinia virus (Vaccinia virus): >100 µg/mL; H37Rv Finding MIC [2]: >100 µg/mL; IC50 [2]: > 100 µg/mL; Antiviral EC50 Punto Toro virus (Punto Toro virus; [6]): >100 µg/mL; Antiviral EC50 HSV-1 (HSV-1; [5]): >100 µg/mL; Cytotoxicity CC50 (CRFK feline kidney cells): >100 µg/mL; Antiviral EC50 Vesicular stomatitis virus [3]: >100 µg/mL; Antiviral EC50 Coxsackie B4 virus (Coxsackie B4 virus; [6]): >100 µg/mL; Antiviral EC50 Parainfluenza-3 virus (Parainfluenza-3 virus): >100 µg/mL; Antiviral EC50 Reovirus-1 (Reovirus-1): >100 µg/mL
"CC1SC2(CCC(c3ccccc3)CC2)N(NC(=O)Cc2csc3nc(-c4ccc(Br)cc4)cn23)C1=O (stereo not drawn) [Compound 6c, 2-[6-(4-Bromophenyl)imidazo[2,1-b]thiazole-3-yl]-N-(2-methyl-8-phenyl-3-oxo-1-thia-4-azaspiro[4.5]dec-4-yl)acetamide]",> 100 µg/mL,> 100 µg/mL,> 100 µg/mL,20 µg/mL,> 100 µg/mL,> 100 µg/mL,> 100 µg/mL,> 100 µg/mL,> 100 µg/mL,> 100 µg/mL,20 µg/mL,> 100 µg/mL,> 100 µg/mL,–,–
"O=C(Cc1csc2nc(-c3ccc(Br)cc3)cn12)NN1C(=O)CSC12CCCCC2 [Compound 5b, 2-[6-(4-Bromophenyl)imidazo[2,1-b]thiazole-3-yl]-N-(3-oxo-1-thia-4-azaspiro[4.5]dec-4-yl)acetamide]",> 100 µg/mL,> 100 µg/mL,> 100 µg/mL,>100 µg/mL,> 100 µg/mL,> 100 µg/mL,> 100 µg/mL,> 100 µg/mL,> 100 µg/mL,> 100 µg/mL,>100 µg/mL,> 100 µg/mL,> 100 µg/mL,Active,H37Rv Finding MIC [2]: 1.566 µg/mL
"dextran sulphate MW 5,000 [DS-5,000, reference compound]",–,–,–,>100 µg/mL,–,–,–,–,–,–,–,–,–,–,Antiviral EC50 Parainfluenza-3 virus (Parainfluenza-3 virus): >100 µg/mL; Antiviral EC50 Reovirus-1 (Reovirus-1): ≥100 µg/mL
"O=C(Cc1csc2nc(-c3ccc(Br)cc3)cn12)NN1C(=O)CSC12CCC(c1ccccc1)CC2 (stereo not drawn) [Compound 5c, 2-[6-(4-Bromophenyl)imidazo[2,1-b]thiazole-3-yl]-N-(3-oxo-8-phenyl-1-thia-4-azaspiro[4.5]dec-4-yl)acetamide]",> 100 µg/mL,> 100 µg/mL,> 100 µg/mL,20 µg/mL,> 100 µg/mL,> 100 µg/mL,> 100 µg/mL,> 100 µg/mL,> 100 µg/mL,> 100 µg/mL,20 µg/mL,> 100 µg/mL,> 100 µg/mL,Active,MIC ([4]; read-out: H37Rv Finding MIC): 0.854 µg/mL; IC50 ([4]; read-out: H37Rv Finding lC50): 0.76 µg/mL
B1,–,–,–,–,–,–,–,–,–,–,–,–,–,–,Cytotoxicity CC50 (CRFK feline kidney cells): 29 µg/mL
